Measured values taken from patent publication US20090264384A1, “INDOLE, BENZIMIDAZOLE, AND BENZOLACTAM BORONIC ACID COMPOUNDS, ANALOGS THEREOF AND METHODS OF USE THEREOF” (Nuada, Inc., priority 2004, published 2009).
Like-named read-outs stand apart in the source and are kept apart here.

Test: Various In Vitro Cell Biology Assays (Example 41, Tables 23-26)
Assay type: cell-based
Conditions: for % Inhibition of Control Values / inhibition at 3 µM / cytotoxicity at 24 h: 3×10^−6 M; for inhibition at 3 µM: PBMC, read-out: % Inhibition of Control Values; for cytotoxicity at 24 h: human, Cell viability (h) (PBMC/24 h), MTT; for IC50: TNF-α secretion (h) (PBMC)
Experimental: In each experiment, the respective reference compound was tested concurrently with the test compounds in order to assess the assay suitability. It was tested at several concentrations (for IC50 value determination).
The test compounds were assayed at 3×10^−6 M.
Results. The results are expressed as a percent of control values and as a percent inhibition of control values obtained in the presence of the test compounds.
The IC50 values (concentration causing a half-maximal inhibition of control values) and Hill coefficients (nH) were determined by non-linear regression analysis of the inhibition curves using Hill equation curve fitting, a summary of the data is shown in Table 26. The IC50 value for each reference compound is indicated was determined (data not shown) and was within accepted limits of the historic average ±0.5 log units.

[1] = IL-6 secretion (h) (PBMC), LPS 1 μg/ml, 24 h
[2] = 48 h, IL-10 secretion (h) (PBMC), PHA 3 μg/ml, 48 h
[3] = 24 h, IL-8 secretion (h) (PBMC), LPS 1 μg/ml, 24 h

In the case of `C[C@@H]1CC2C3CCC4=CC(=O)C=CC4(C)C3(F)[C@@H](O)CC2(C)C1(O)C(=O)CO` (stereo partly drawn) [drawing 92], the “% Inhibition of Control Values” [1] is reported as 57%.
For `C[C@@H]1CC2C3CCC4=CC(=O)C=CC4(C)C3(F)[C@@H](O)CC2(C)C1(O)C(=O)CO` (stereo partly drawn) [drawing 93], the “% Inhibition of Control Values” [1] was −70%.
`N#Cc1ncnc2c1ncn2CCCCCB(O)O` [drawing 94] gave an inhibition at 3 µM (24 h, IL-6 secretion (h) (PBMC), LPS 1 μg/ml, 24 h) of -30%.
With `N#Cc1ccc2c(ccn2CCCCCB(O)O)c1` [drawing 95] the inhibition at 3 µM [2] was 36%.
In the case of `OB(O)CCCCn1c(C(F)(F)F)nc2ccccc21` [drawing 96], the inhibition at 3 µM [2] is reported as 17%.
Molecule `C[C@@H]1CC2C3CCC4=CC(=O)C=CC4(C)C3(F)[C@@H](O)CC2(C)C1(O)C(=O)CO` (stereo partly drawn) [drawing 97] has an inhibition at 3 µM [2] of 62%.
For `N#Cc1ncnc2c1ncn2CCCCCB(O)O` [drawing 99], the inhibition at 3 µM [2] was 13%.
For `N#Cc1ccc2c(ccn2CCCCCB(O)O)c1` [drawing 100], the inhibition at 3 µM [3] was -63%.
In the case of `OB(O)CCCCn1c(C(F)(F)F)nc2ccccc21` [drawing 101], the inhibition at 3 µM [3] is reported as -29%.
Work on `C[C@@H]1CC2C3CCC4=CC(=O)C=CC4(C)C3(F)[C@@H](O)CC2(C)C1(O)C(=O)CO` (stereo partly drawn) [drawing 102] yielded an inhibition at 3 µM [3] of 67%.
In the case of `Nc1nc(Cl)c2ncn(CCCCCB(O)O)c2n1` [drawing 103], the inhibition at 3 µM [3] is reported as 8%.
Work on `N#Cc1ncnc2c1ncn2CCCCCB(O)O` [drawing 104] yielded an inhibition at 3 µM [3] of -33%.
For `N#Cc1ccc2c(ccn2CCCCCB(O)O)c1` [drawing 105], the cytotoxicity at 24 h was 0%.
`OB(O)CCCCn1c(C(F)(F)F)nc2ccccc21` [drawing 106] showed a cytotoxicity at 24 h of -6%.
Work on `C[C@@H]1CC2C3CCC4=CC(=O)C=CC4(C)C3(F)[C@@H](O)CC2(C)C1(O)C(=O)CO` (stereo partly drawn) [drawing 107] yielded a cytotoxicity at 24 h of 6%.
With `Nc1nc(Cl)c2ncn(CCCCCB(O)O)c2n1` [drawing 108] the cytotoxicity at 24 h was 6%.
In the case of `N#Cc1ncnc2c1ncn2CCCCCB(O)O` [drawing 109], the cytotoxicity at 24 h is reported as 5%.
For `COc1ccc(-c2nc3ccccc3n2CCCCCB(O)O)cc1` [drawing 110], the IC50 (LPS 1 μg/ml, 24 h) was 0.2 µM.
In the case of `OB(O)CCCCCn1c(-c2cscn2)nc2ccccc21` [drawing 111], the IC50 (LPS 1 μg/ml, 24 h) is reported as > 3 µM.
In the case of `N#Cc1ccc2c(ccn2CCCCCB(O)O)c1` [drawing 112], the IC50 (LPS 1 μg/ml, 24 h) is reported as 1.5 µM.
With `C[C@@H]1CC2C3CCC4=CC(=O)C=CC4(C)C3(F)[C@@H](O)CC2(C)C1(O)C(=O)CO` (stereo partly drawn) [drawing 114] the IC50 (LPS 1 μg/ml, 24 h) was 0.036 µM.
